According to patent US8575158B2, “1-phenyl-substituted heterocyclyl derivatives and their use as prostaglandin D2 receptor modulators” (Actelion Pharmaceuticals Ltd., priority 2010, dated 2013):

Target: T1, hCRTH2 receptor (Homo sapiens, UniProt Q9Y5Y4)
T1 construct: expressed in transfected cells; host or cells: HEK293
T1 sequence (Q9Y5Y4 1-395): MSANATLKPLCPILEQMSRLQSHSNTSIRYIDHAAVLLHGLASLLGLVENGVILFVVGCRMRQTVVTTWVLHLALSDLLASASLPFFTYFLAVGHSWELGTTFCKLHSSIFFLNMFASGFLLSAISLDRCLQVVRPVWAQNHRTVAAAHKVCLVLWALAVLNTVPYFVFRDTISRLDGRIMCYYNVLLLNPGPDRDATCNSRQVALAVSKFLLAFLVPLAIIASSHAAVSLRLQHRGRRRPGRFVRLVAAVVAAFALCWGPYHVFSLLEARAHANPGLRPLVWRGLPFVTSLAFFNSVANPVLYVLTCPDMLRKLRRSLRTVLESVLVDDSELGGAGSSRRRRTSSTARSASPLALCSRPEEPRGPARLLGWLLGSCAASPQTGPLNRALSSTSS
Assay: Radioligand displacement assay (3H-PGD2) on hCRTH2 receptor membranes
Format: binding
Settings: antagonistic activity

[1] = 3H-PGD2 displacement on HEK293-hCRTH2 membrane fragments
[2] = 3H-PGD2 radioligand displacement, HEK293-hCRTH2 membranes

| Compound | IC50 [1] | IC50 [2] | further results |
| --- | --- | --- | --- |
| O=C(O)COc1ccc(Cl)cc1[C@@H]1c2ccccc2CCN1C(=O)[C@@H]1C[C@H]1c1cccc(Cl)c1 [Example 564, (4-Chloro-2-{(S)-2-[(1R,2R)-2-(3-chloro-phenyl)-cyclopropanecarbonyl]-1,2,3,4-tetrahydro-isoquinolin-1-yl}-phenoxy)-acetic acid] |  |  | IC50 (radioligand displacement (3H-PGD2), hCRTH2 receptor membranes): 4.29 nM |
| O=C(O)COc1ccc(F)cc1C1c2ccccc2CCN1C(=O)NCc1ccccc1 (racemic) [Example 199] | 54 nM |  |  |
| O=C(O)COc1ccc(Cl)cc1C1c2ccccc2CCN1C(=O)OCc1cccc(F)c1 (racemic) [Example 238] | 12.6 nM |  |  |
| Cn1cncc1COC(=O)N1CCc2cc(F)ccc2[C@H]1c1cc(Cl)ccc1OCC(=O)O [Example 340, (S)-1-(2-Carboxymethoxy-5-chloro-phenyl)-6-fluoro-3,4-dihydro-1H-isoquinoline-2-carboxylic acid 3-methyl-3H-imidazol-4-ylmethyl ester] |  | 5.17 nM |  |
| O=C(O)COc1ccc(Cl)cc1C1c2cccc(F)c2CCN1C(=O)OCc1ccccc1Cl (racemic) [Example 175] | 8.75 nM |  |  |
| O=C(O)COc1ccc(Cl)cc1[C@@H]1c2ccc(F)cc2CCN1C(=O)OCc1ccncn1 [Example 333, (S)-1-(2-Carboxymethoxy-5-chloro-phenyl)-6-fluoro-3,4-dihydro-1H-isoquinoline-2-carboxylic acid pyrimidin-4-ylmethyl ester] |  | 45.7 nM |  |
| O=C(O)COc1ccc(F)cc1C1c2ccccc2CCN1C(=O)CCc1nc2ccccc2s1 (racemic) [Example 59, (±)-{2-[2-(3-Benzothiazol-2-yl-propionyl)-1,2,3,4-tetrahydro-isoquinolin-1-yl]-4-fluoro-phenoxy}-acetic acid] | 794 nM |  |  |
| Cc1cc(COC(=O)N2CCc3cc(F)ccc3[C@H]2c2cc(Cl)ccc2OCC(=O)O)on1 [Example 330, (S)-1-(2-Carboxymethoxy-5-chloro-phenyl)-6-fluoro-3,4-dihydro-1H-isoquinoline-2-carboxylic acid 3-methyl-isoxazol-5-ylmethyl ester] |  | 10.6 nM |  |
| COc1ccc(COC(=O)N2CCc3ccccc3C2c2cc(Cl)ccc2OCC(=O)O)c(OC)c1 (racemic) [Example 254] | 16 nM |  |  |
| Cc1nc(COC(=O)N2CCc3cc(F)ccc3[C@H]2c2cc(Cl)ccc2OCC(=O)O)cs1 [Example 329, (S)-1-(2-Carboxymethoxy-5-chloro-phenyl)-6-fluoro-3,4-dihydro-1H-isoquinoline-2-carboxylic acid 2-methyl-thiazol-4-ylmethyl ester] |  | 5.9 nM |  |
| O=C(O)COc1ccc(Cl)cc1[C@@H]1c2ccc(F)cc2CCN1C(=O)OCc1noc2ccccc12 [Example 348, (S)-1-(2-Carboxymethoxy-5-chloro-phenyl)-6-fluoro-3,4-dihydro-1H-isoquinoline-2-carboxylic acid benzo[d]isoxazol-3-ylmethyl ester] |  | 0.4 nM |  |
| O=C(O)COc1ccc(Cl)cc1[C@@H]1c2ccc(F)cc2CCN1C(=O)OCc1cncnc1 [Example 334, (S)-1-(2-Carboxymethoxy-5-chloro-phenyl)-6-fluoro-3,4-dihydro-1H-isoquinoline-2-carboxylic acid pyrimidin-5-ylmethyl ester] |  | 4.95 nM |  |
| Cc1cccc(C)c1COC(=O)N1CCc2ccccc2C1c1cc(Cl)ccc1OCC(=O)O (racemic) [Example 247] | 17.3 nM |  |  |
| O=C(O)COc1ccc(Cl)cc1C1c2ccccc2CCN1C(=O)C1CCc2ccccc2C1 (stereo not shown) [Example 77, {4-Chloro-2-[2-(1,2,3,4-tetrahydro-naphthalene-2-carbonyl)-1,2,3,4-tetrahydro-isoquinolin-1-yl]-phenoxy}-acetic acid] | 134 nM |  |  |
| CCn1nc(C)cc1CCOC(=O)N1CCc2cc(F)ccc2[C@H]1c1cc(Cl)ccc1OCC(=O)O [Example 339, (S)-1-(2-Carboxymethoxy-5-chloro-phenyl)-6-fluoro-3,4-dihydro-1H-isoquinoline-2-carboxylic acid 2-(2-ethyl-5-methyl-2H-pyrazol-3-yl)-ethyl ester] |  | 11.5 nM |  |
| O=C(O)COc1ccc(Cl)cc1[C@@H]1c2ccc(F)cc2CCN1C(=O)OCc1nccs1 [Example 324, (S)-1-(2-Carboxymethoxy-5-chloro-phenyl)-6-fluoro-3,4-dihydro-1H-isoquinoline-2-carboxylic acid thiazol-2-ylmethyl ester] |  | 6.26 nM |  |
| Cn1nc(COC(=O)N2CCc3c(ccc(F)c3F)[C@H]2c2cc(Cl)ccc2OCC(=O)O)c2ccccc21 [Example 321, (S)-1-(2-Carboxymethoxy-5-chloro-phenyl)-5,6-difluoro-3,4-dihydro-1H-isoquinoline-2-carboxylic acid 1-methyl-1H-indazol-3-ylmethyl ester] |  | 1.84 nM |  |
| CN(CC(=O)N1CCc2ccccc2C1c1cc(F)ccc1OCC(=O)O)S(=O)(=O)c1ccc(F)c(F)c1 (racemic) [Example 212] | 920 nM |  |  |
| Cn1cc(CCC(=O)N2CCc3cc(F)ccc3C2c2cc(Cl)ccc2OCC(=O)O)c2ccccc21 (racemic) [Example 434] |  | 33.3 nM |  |
| Cc1ccc(COC(=O)N2CCc3ccccc3C2c2cc(Cl)ccc2OCC(=O)O)c(C)n1 (racemic) [Example 256] | 14.1 nM |  |  |

| Compound | IC50 [1] | IC50 [2] | further results |
| --- | --- | --- | --- |
| Cc1cccc(COC(=O)N2CCc3ccccc3C2c2cc(Cl)ccc2OCC(=O)O)c1 (racemic) [Example 239] | 17.7 nM |  |  |
| Cn1cncc1COC(=O)N1CCc2ccccc2[C@H]1c1cc(Cl)ccc1OCC(=O)O [Example 290, (S)-1-(2-Carboxymethoxy-5-chloro-phenyl)-3,4-dihydro-1H-isoquinoline-2-carboxylic acid 3-methyl-3H-imidazol-4-ylmethyl ester] |  | 0.48 nM |  |
| Cc1cc(COC(=O)N2CCc3c(ccc(F)c3F)[C@H]2c2cc(Cl)ccc2OCC(=O)O)n(C)n1 [Example 313, (S)-1-(2-Carboxymethoxy-5-chloro-phenyl)-5,6-difluoro-3,4-dihydro-1H-isoquinoline-2-carboxylic acid 2,5-dimethyl-2H-pyrazol-3-ylmethyl ester] |  | 2.37 nM |  |
| COc1cccc(COC(=O)N2CCc3ccccc3C2c2cc(Cl)ccc2OCC(=O)O)c1OC (racemic) [Example 255] | 4.9 nM |  |  |
| O=C(O)COc1ccc(Cl)cc1[C@@H]1c2ccc(F)cc2CCN1C(=O)OCCc1cccc(F)c1 [Example 336, (S)-1-(2-Carboxymethoxy-5-chloro-phenyl)-6-fluoro-3,4-dihydro-1H-isoquinoline-2-carboxylic acid 2-(3-fluoro-phenyl)-ethyl ester] |  | 11.5 nM |  |
| O=C(O)COc1ccc(Cl)cc1C1c2ccccc2CCN1C(=O)CCn1ccc2ncccc21 (racemic) [Example 381] |  | 31.6 nM |  |
| O=C(O)COc1ccc(Cl)cc1C1c2ccccc2CCN1C(=O)COCc1ccccc1 (racemic) [Example 105, (±)-{2-[2-(2-Benzyloxy-acetyl)-1,2,3,4-tetrahydro-isoquinolin-1-yl]-4-chloro-phenoxy}-acetic acid] | 9.95 nM |  |  |
| COc1ccccc1CNC(=O)N1CCc2ccccc2C1c1cc(Cl)ccc1OCC(=O)O (racemic) [Example 202] | 7.29 nM |  |  |
| O=C(O)COc1ccc(Cl)cc1C1c2ccccc2CN1C(=O)COc1ccc(F)cc1 (racemic) [Example 504] |  | 33 nM |  |
| O=C(O)COc1ccc(Cl)cc1C1c2ccccc2CCN1C(=O)OCC1CC1 (racemic) [Example 268] | 27.7 nM |  |  |
| Cc1nn(CCC(=O)N2Cc3ccccc3C2c2cc(Cl)ccc2OCC(=O)O)c2ccccc12 (single isomer, unassigned) [Example 533, (4-Chloro-2-{2-[3-(3-methyl-indazol-1-yl)-propionyl]-2,3-dihydro-1H-isoindol-1-yl}-phenoxy)-acetic acid] |  | 6.09 nM |  |
| O=C(O)COc1ccc(F)cc1C1c2ccccc2CCN1C(=O)COCc1cccc(Cl)c1 (racemic) [Example 190] | 16.9 nM |  |  |
| Cc1cc(COC(=O)N2CCc3ccccc3C2c2cc(Cl)ccc2OCC(=O)O)no1 (racemic) [Example 270] | 8.31 nM |  |  |
| O=C(O)COc1ccc(Cl)cc1C1c2ccccc2CCN1C(=O)CCCc1ccccc1F (racemic) [Example 115, (±)-(4-Chloro-2-{2-[4-(2-fluoro-phenyl)-butyryl]-1,2,3,4-tetrahydro-isoquinolin-1-yl}-phenoxy)-acetic acid] | 27 nM |  |  |
| O=C(O)COc1ccc(Cl)cc1C1c2ccccc2CCN1C(=O)COCc1ccccc1Cl (racemic) [Example 106, (±)-(4-Chloro-2-{2-[2-(2-chloro-benzyloxy)-acetyl]-1,2,3,4-tetrahydro-isoquinolin-1-yl}-phenoxy)-acetic acid] | 4.06 nM |  |  |
| O=C(O)COc1ccc(Cl)cc1C1c2ccccc2CCN1C(=O)NCCc1ccccc1 (racemic) [Example 493] |  | 22.5 nM |  |
| O=C(O)COc1ccc(Cl)cc1C1c2ccccc2CCN1C(=O)[C@@H]1C[C@H]1c1cccc(Cl)c1 (mixture of isomers) [Example 421] |  | 24 nM |  |
| O=C(O)COc1ccc(F)cc1C1c2ccccc2CCN1C(=O)Cc1ccc(-c2ccccc2)cc1 (racemic) [Example 60] | 577 nM |  |  |
| O=C(O)COc1ccc(Cl)cc1[C@@H]1c2ccc(F)c(F)c2CCN1C(=O)OCc1cnccn1 [Example 308, (S)-1-(2-Carboxymethoxy-5-chloro-phenyl)-5,6-difluoro-3,4-dihydro-1H-isoquinoline-2-carboxylic acid pyrazin-2-ylmethyl ester] |  | 1.69 nM |  |
| CC(C)[C@@H]1C[C@H]1C(=O)N1CCc2ccccc2[C@H]1c1cc(Cl)ccc1OCC(=O)O (single isomer, unassigned) [Example 464] |  | 789 nM |  |
